Results as given in PubChem BioAssay (NCI).
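Cultured in 96-well plates, cells were exposed to test compound for 48 hours across five concentrations. GI50 is the concentration that inhibits growth by half. The concentration for full growth arrest is given as TGI.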

Assays:
Experiment in all cases: inhibition of tumour cell growth, NCI panel, 48 h
OVCAR-4 ovarian = tested on: OVCAR-4 ovarian
IGROV1 ovarian = tested on: IGROV1 ovarian
HL-60(TB) leukemia = tested on: HL-60(TB) leukemia
SN12C renal = tested on: SN12C renal
UO-31 renal = tested on: UO-31 renal
HCT-15 colon = tested on: HCT-15 colon
NCI-H23 lung = tested on: NCI-H23 lung
U251 CNS = tested on: U251 CNS
MOLT-4 leukemia = tested on: MOLT-4 leukemia
CCRF-CEM leukemia = tested on: CCRF-CEM leukemia

Compound | TGI (OVCAR-4 ovarian) [µM] | TGI (IGROV1 ovarian) [µM] | TGI (HL-60(TB) leukemia) [µM] | TGI (SN12C renal) [µM] | TGI (UO-31 renal) [µM] | TGI (HCT-15 colon) [µM] | TGI (NCI-H23 lung) [µM] | TGI (U251 CNS) [µM] | TGI (MOLT-4 leukemia) [µM] | TGI (CCRF-CEM leukemia) [µM] | GI50 (OVCAR-4 ovarian) [µM] | GI50 (HL-60(TB) leukemia) [µM] | GI50 (UO-31 renal) [µM] | GI50 (NCI-H23 lung) [µM] | GI50 (U251 CNS) [nM] | GI50 (MOLT-4 leukemia) [µM] | GI50 (CCRF-CEM leukemia) [nM] | GI50 (IGROV1 ovarian) [µM] | GI50 (SN12C renal) [µM] | GI50 (HCT-15 colon) [µM]
O=S(O)CCCCSSCc1ccccc1CSSCCCCS(=O)O | 18.3 | > 100 | 36.2 | > 100 | 74.4 | > 100 | 61.8 | > 100 | 14.5 | 42.5 |  |  |  |  |  |  |  |  |  | 
CC(=O)Oc1ccccc1C(=O)N=C1[Se]CCN1C(=O)c1ccccc1OC(C)=O | 7.24 |  | 8.47 |  | 1.53 |  | 5.43 | 2.18 | > 100 | > 100 | 1.46 | 0.708 | 0.424 | 1.56 | 734 | 0.621 | 556 |  |  | 
O=C(CCCN1CC=C(n2c(=O)[nH]c3ccccc32)CC1)c1ccc(F)cc1 | > 100 | > 100 | 67.4 | > 100 | > 100 | > 100 | > 100 |  | 91.8 | > 100 | 30 | 24.3 | 27.5 | 37.6 |  | 30.5 | 35500 | > 100 | 96.2 | 37.4
O=C(/C=C/c1ccccc1)/C=C/c1ccccc1 | 53.2 | 66.5 | 78.8 | 42.1 | > 100 | 70.5 | 82.4 | 43.5 | 86.5 | > 100 |  |  |  |  |  |  |  |  |  | 
CC(C)c1ccccc1S(=O)c1ccccc1C(C)(C)O (stereo unspecified) | > 100 | > 100 | > 100 | > 100 |  | > 100 | > 100 | 39.1 | > 100 | > 100 |  |  |  |  |  |  |  |  |  | 
Cc1cc(NC(=O)c2ccc(C)c(Nc3nccc(-c4cccnc4)n3)c2)cc(-n2cnc(C)c2)c1 | 2.19 | 13.5 | > 50 | 12.8 | 5.3 | > 27 | > 34.1 | 7.61 | > 50 | > 50 | 0.999 | 14.5 | 1.97 | 9.44 | 1990 | 15.6 | 134 | 3.93 | 0.005 | 7.49
COc1ccc(-c2cc(-c3cccn3C)c(C#N)c(N)n2)cc1OC | > 100 | > 100 | > 100 | > 100 | > 100 | > 100 | > 100 | > 100 | > 100 |  | 40.7 | 19.6 | 98.3 | > 100 | > 100000 | 46.8 |  | 96 | 66.9 | > 100
COc1cc2c(cc1OC)C13CCN4CC5=CCOC6CC(=O)N2C1C6C5CC43O (stereo unspecified) | > 100 | > 100 | > 100 | > 100 | > 100 | > 100 | > 100 | > 100 | > 100 | > 100 |  |  |  |  |  |  |  |  |  | 
CSC1(CC(=O)N(C)C)C(=O)Nc2ccccc21 (stereo unspecified) | > 100 | > 100 |  |  | > 100 | > 100 | > 100 | > 100 | > 100 |  |  |  |  |  |  |  |  |  |  | 
CCOC(=O)[C@H](CCCNC(=O)OC(C)(C)C)NCc1ccc(OC)c(OC)c1 | > 100 | > 100 | > 100 | > 100 | > 100 |  | > 100 | > 100 | > 100 | > 100 |  |  |  |  |  |  |  |  |  | 
O=C(O)c1cccc(OCCO)c1 | > 100 | > 100 | > 100 | > 100 | > 100 | > 100 | > 100 | > 100 | > 100 |  |  |  |  |  |  |  |  |  |  | 
Cc1[nH][nH]c(=O)c1C=Nc1ccc(-c2nc3ccccc3[nH]2)cc1 | 76.5 | > 100 | > 100 | 96.5 | > 100 | 55.6 |  | 44.7 | > 100 | > 100 | 24.4 | 22.6 | 31.8 |  | 19000 | 52 | 66 | 24.6 | 36.7 | 22
Cc1cn2c(/C=C3/C(=O)Nc4ccccc43)c(-c3ccc(Cl)cc3)nc2s1 |  | 19.9 |  |  | > 50 | 13.4 |  | 11.2 | 47.4 | > 50 |  |  | 35.9 |  | 5310 | 16.9 | 17600 | 10.2 |  | 6.93
CCN(CC)CC(C)(C)C(=O)/C=C/c1ccc(Cl)c(Cl)c1 | 3.2 | 4.95 | 6.59 |  | 2.72 | 2.92 | 4.17 | 3.15 | 8.11 | 4.22 | 1.63 | 1.07 | 1.32 | 1.9 | 1710 | 2.37 | 1140 | 2.01 |  | 1.42
N#CC(C(=O)/C(=N/Nc1nc(=S)[nH]n1N)C(C#N)c1ccccc1)c1ccccc1 (stereo unspecified) | > 100 | > 100 | > 100 | > 100 | > 100 | > 100 | > 100 | > 100 |  | > 100 |  |  |  |  |  |  |  |  |  | 
CCOC(=O)C1N(S(=O)(=O)c2ccc(C)cc2)CCC12C(c1ccc(OC)cc1)NC1CCCCC12 (stereo unspecified) | > 100 | > 100 | > 100 | > 100 | > 100 | > 100 | > 100 | > 100 |  | > 100 |  |  |  |  |  |  |  |  |  | 
O=C(CCC(=O)Nc1cccc(Cl)c1)CC(=O)c1ccc(Cl)cc1 | > 100 | > 100 | > 100 | > 100 | > 100 | > 100 | > 100 |  | > 100 |  |  |  |  |  |  |  |  |  |  | 
Cc1c(C2Nc3ccccc3C2C)[nH]c2ccccc12 (stereo unspecified) | 21.6 | 27.3 | 38.3 | 24.1 | 22.1 | 25.9 | 32.1 |  | 49.5 | 46.6 | 6.17 | 13.1 | 6.27 | 14.5 |  | 11.2 | 801 | 2.96 | 11.4 | 0.297
